Assay results reported in patent US20220313629A1, “TRANSIENT POTENTIAL MELASTATIN 8 (TRPM8) ANTAGONISTS AND RELATED METHODS” (MARSHALL UNIVERSITY RESEARCH CORPORATION, priority 2019, published 2022).
Like-named read-outs stand apart in the source and are kept apart here. Blank lines part the entries; values can stand above or below the compound they belong to.

What was measured:
Assay type in all cases: cell-based
[1] = molecular target: TRPM8 (Homo sapiens, UniProt Q7Z2W7); assay: TRPM8 antagonist activity by Fura-2 Ca2+ imaging in HEK-293 cells stably expressing human TRPM8; details: for IC50: read-out: Functional Activity hTRPM8 potency IC50 ± SEM
[2] = molecular target: human TRPA1 (Homo sapiens, UniProt O75762); assay: TRPA1 agonist and antagonist Ca2+ flux assay (FLIPR, Fluo-8) in HEK293 cells stably expressing human TRPA1; details: for effect on hTRPA1-mediated responses (intrinsic and antagonist activity): at concentrations 13- to 25-fold higher than hTRPM8 IC50; for hTRPA1 % Activation (n = 3-5): normalized to Emax of AITC (300 μM)
[3] = molecular target: human TRPV1 (Homo sapiens, UniProt Q8NER1); assay: TRPV1 agonist and antagonist Ca2+ flux assay (FLIPR, Fluo-8) in HEK293 cells stably expressing human TRPV1; details: for effect on hTRPV1-mediated responses (intrinsic and antagonist activity): at concentrations 13- to 25-fold higher than hTRPM8 IC50; for hTRPV1 % Activation (n = 3): normalized to Emax of capsaicin (3 μM)
[4] = inhibition of icilin (500 nM)-evoked Ca2+ entry, HEK-293 cells stably expressing hTRPM8, mean ± SEM, three independent experiments
[5] = HEK293, read-out: hTRPA1 % Inhibition (n = 3)
[6] = HEK293, read-out: hTRPV1 % Inhibition (n = 3)
[7] = HEK293, read-out: % Activation Mean ± SEM (n = 5), TRPV1 antagonist data (Percentage Inhibition Normalized to EC80 Control)

Sequence of human TRPA1 (O75762 whole entry): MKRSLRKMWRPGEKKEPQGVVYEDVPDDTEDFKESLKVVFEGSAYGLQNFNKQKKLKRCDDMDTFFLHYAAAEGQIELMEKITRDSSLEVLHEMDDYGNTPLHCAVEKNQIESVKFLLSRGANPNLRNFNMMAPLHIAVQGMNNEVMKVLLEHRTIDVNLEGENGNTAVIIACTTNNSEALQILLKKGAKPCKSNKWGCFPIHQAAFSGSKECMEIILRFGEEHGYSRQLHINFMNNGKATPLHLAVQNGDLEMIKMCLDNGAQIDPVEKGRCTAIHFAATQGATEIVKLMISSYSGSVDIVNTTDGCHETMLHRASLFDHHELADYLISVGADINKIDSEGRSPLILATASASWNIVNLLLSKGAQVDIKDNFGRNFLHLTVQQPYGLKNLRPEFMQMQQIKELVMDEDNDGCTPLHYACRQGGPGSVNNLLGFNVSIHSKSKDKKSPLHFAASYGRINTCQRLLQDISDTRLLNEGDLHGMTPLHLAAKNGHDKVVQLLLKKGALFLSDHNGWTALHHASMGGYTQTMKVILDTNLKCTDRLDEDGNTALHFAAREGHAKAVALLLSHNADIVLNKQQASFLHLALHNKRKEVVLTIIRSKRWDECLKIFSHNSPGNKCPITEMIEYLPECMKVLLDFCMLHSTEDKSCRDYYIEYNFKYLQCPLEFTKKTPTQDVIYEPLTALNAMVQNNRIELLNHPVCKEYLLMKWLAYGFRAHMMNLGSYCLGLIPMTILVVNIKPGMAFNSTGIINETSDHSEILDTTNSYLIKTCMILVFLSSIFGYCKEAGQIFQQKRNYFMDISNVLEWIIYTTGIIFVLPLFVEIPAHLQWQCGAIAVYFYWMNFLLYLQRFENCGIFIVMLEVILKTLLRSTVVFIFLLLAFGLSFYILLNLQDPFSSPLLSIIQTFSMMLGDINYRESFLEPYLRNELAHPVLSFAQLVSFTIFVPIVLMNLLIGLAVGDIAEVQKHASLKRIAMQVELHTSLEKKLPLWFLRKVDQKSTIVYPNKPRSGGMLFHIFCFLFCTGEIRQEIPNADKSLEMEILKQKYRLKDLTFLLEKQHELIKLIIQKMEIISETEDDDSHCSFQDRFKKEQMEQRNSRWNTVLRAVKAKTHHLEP
Sequence of human TRPV1 (Q8NER1 whole entry): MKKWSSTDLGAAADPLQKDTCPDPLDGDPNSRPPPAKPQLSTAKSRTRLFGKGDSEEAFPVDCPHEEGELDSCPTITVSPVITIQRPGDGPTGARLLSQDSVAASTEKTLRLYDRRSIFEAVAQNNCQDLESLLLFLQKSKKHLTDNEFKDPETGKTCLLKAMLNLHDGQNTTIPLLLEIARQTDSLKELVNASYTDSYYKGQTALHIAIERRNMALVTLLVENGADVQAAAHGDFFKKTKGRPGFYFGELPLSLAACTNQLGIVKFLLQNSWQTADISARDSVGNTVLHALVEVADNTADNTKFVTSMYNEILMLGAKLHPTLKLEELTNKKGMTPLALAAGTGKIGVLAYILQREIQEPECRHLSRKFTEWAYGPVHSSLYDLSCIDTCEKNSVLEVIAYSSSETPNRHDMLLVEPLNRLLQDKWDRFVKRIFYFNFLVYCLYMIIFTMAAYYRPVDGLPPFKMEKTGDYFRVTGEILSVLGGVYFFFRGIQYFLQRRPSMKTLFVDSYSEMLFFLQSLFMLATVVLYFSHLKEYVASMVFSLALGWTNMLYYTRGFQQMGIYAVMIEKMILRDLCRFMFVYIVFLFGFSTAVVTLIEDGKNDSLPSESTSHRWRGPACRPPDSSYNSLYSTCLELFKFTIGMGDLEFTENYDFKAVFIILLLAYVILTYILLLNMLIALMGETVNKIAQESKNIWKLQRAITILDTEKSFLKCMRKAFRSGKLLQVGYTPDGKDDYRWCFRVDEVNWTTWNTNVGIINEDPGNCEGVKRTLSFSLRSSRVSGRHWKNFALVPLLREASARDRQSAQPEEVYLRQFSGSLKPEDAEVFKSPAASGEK
Sequence of TRPM8 (Q7Z2W7 whole entry): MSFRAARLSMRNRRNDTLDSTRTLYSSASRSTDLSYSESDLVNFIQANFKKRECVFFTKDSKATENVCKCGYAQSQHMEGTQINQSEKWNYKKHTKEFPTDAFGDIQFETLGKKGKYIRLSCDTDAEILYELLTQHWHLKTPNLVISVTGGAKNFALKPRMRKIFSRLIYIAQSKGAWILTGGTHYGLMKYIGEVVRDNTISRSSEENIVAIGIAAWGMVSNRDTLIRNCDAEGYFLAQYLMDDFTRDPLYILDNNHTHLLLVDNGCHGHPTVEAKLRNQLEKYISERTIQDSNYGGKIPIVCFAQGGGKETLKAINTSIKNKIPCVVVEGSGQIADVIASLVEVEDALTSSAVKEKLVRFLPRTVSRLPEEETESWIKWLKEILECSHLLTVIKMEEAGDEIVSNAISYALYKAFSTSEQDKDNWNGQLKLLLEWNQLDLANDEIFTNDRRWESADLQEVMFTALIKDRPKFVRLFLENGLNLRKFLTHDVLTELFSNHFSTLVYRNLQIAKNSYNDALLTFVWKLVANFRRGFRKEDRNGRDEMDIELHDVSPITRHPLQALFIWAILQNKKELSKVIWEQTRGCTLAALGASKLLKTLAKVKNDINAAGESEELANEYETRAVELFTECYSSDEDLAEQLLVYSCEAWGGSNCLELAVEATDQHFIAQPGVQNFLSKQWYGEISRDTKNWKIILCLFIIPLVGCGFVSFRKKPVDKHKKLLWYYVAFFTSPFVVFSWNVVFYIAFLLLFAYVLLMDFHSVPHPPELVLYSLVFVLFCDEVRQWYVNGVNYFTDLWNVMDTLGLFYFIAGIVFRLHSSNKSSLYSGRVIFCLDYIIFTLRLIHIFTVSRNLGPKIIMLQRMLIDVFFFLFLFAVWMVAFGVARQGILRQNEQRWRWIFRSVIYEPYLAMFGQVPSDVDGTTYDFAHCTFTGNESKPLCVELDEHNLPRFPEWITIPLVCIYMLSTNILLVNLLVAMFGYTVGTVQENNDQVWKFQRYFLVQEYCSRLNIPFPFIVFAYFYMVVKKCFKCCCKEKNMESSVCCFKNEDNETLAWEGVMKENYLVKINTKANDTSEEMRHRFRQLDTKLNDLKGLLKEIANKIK

SMILES: O=C(NC1CCC2CCCCC2C1)c1ccc(-c2ccccc2)cc1 (mixture of isomers) [Compound 10, N-(decahydronaphthalen-2-yl)-[1,1′-biphenyl]-4-carboxamide]
enhancement of TRPM8 potency relative to Compound 8 ([1]; icilin Ca2+ assay): 3,500 fold | higher potency than Compound 5 and Compound 7 ([1]; icilin Ca2+ assay): 10 fold | IC50 [1, 4]: 6 ± 1 nM | IC50 [1]: ≤ 10 nM | inhibition at 0.01 µM [2, 5]: -8 ± 3% | inhibition at 0.1 µM [2, 5]: -1 ± 10% | effect on hTRPA1-mediated responses (intrinsic and antagonist activity) [2]: does not activate or inhibit | hTRPA1 % Activation (n = 3-5) ([2]; tested at 10 nM): 0.2 ± 0.4% | hTRPA1 % Activation (n = 3-5) ([2]; tested at 100 nM): −1.1 ± 0.2% | inhibition at 0.01 µM [3, 6]: -13 ± 4% | inhibition at 0.1 µM [3, 6]: 2 ± 3% | effect on hTRPV1-mediated responses (intrinsic and antagonist activity) [3]: does not activate or inhibit | hTRPV1 % Activation (n = 3) ([3]; tested at 10 nM): 2.4 ± 0.8% | hTRPV1 % Activation (n = 3) ([3]; tested at 100 nM): 2.3 ± 0.9%

SMILES: O=C(NC1CCC2CCCCC2C1)c1ccc(-c2ccccc2)cc1 (racemic) [Compound 12, N-((2SR,9RS,10SR)-decahydronaphthalen-2-yl)-[1,1′-biphenyl]-4-carboxamide]
inhibition at 0.003 µM [2, 5]: -0.3 ± 3% | inhibition at 0.03 µM [2, 5]: 5 ± 9% | effect on hTRPA1-mediated responses (intrinsic and antagonist activity) [2]: do not affect | hTRPA1 % Activation (n = 3-5) ([2]; tested at 3 nM): −2.3 ± 1.0% | hTRPA1 % Activation (n = 3-5) ([2]; tested at 30 nM): −2.1 ± 0.5% | inhibition at 0.003 µM [3, 6]: -12 ± 3% | inhibition at 0.03 µM [3, 6]: 1 ± 2% | effect on hTRPV1-mediated responses (intrinsic and antagonist activity) [3]: do not affect | hTRPV1 % Activation (n = 3) ([3]; tested at 3 nM): 2 ± 1% | hTRPV1 % Activation (n = 3) ([3]; tested at 30 nM): 3 ± 1%

SMILES: C=CCN=C=S [AITC, Allyl isothiocyanate, reference compound]
% Activation Mean ± SEM (n = 5), TRPA1 agonist data ([2]; 100 nM, normalized to Emax of AITC): −0.8 ± 0.4% | % Activation Mean ± SEM (n = 5), TRPA1 agonist data ([2]; 300 nM, normalized to Emax of AITC): −0.5 ± 0.2% | % Activation Mean ± SEM (n = 5), TRPA1 agonist data ([2]; 1,000 nM, normalized to Emax of AITC): −0.5 ± 0.2% | % Activation Mean ± SEM (n = 5), TRPA1 agonist data ([2]; 3,000 nM, normalized to Emax of AITC): −1.2 ± 0.2% | % Activation Mean ± SEM (n = 5), TRPA1 agonist data ([2]; 10,000 nM, normalized to Emax of AITC): 68.8 ± 2.9% | % Activation Mean ± SEM (n = 5), TRPA1 agonist data ([2]; 30,000 nM, normalized to Emax of AITC): 78.5 ± 1.0% | % Activation Mean ± SEM (n = 5), TRPA1 agonist data ([2]; 100,000 nM, normalized to Emax of AITC): 94.2 ± 2.4% | % Activation Mean ± SEM, TRPA1 agonist data ([2]; 300,000 nM, normalized to Emax of AITC, n = 10): 100.0 ± 1.3 %

SMILES: COc1cc(CNC(=O)CCCC/C=C/C(C)C)ccc1O [Capsaicin, reference compound]
% Activation Mean ± SEM (n = 5), TRPV1 agonist data ([3]; 1 nM, normalized to Emax of capsaicin): −0.2 ± 1.0% | % Activation Mean ± SEM (n = 5), TRPV1 agonist data ([3]; 3 nM, normalized to Emax of capsaicin): −1.7 ± 0.7% | % Activation Mean ± SEM (n = 5), TRPV1 agonist data ([3]; 10 nM, normalized to Emax of capsaicin): 15.2 ± 0.6% | % Activation Mean ± SEM (n = 5), TRPV1 agonist data ([3]; 30 nM, normalized to Emax of capsaicin): 72.4 ± 2.3% | % Activation Mean ± SEM (n = 5), TRPV1 agonist data ([3]; 100 nM, normalized to Emax of capsaicin): 81.4 ± 3.3% | % Activation Mean ± SEM (n = 5), TRPV1 agonist data ([3]; 300 nM, normalized to Emax of capsaicin): 91.8 ± 3.7% | % Activation Mean ± SEM (n = 5), TRPV1 agonist data ([3]; 1,000 nM, normalized to Emax of capsaicin): 101.6 ± 2.0% | % Activation Mean ± SEM, TRPV1 agonist data ([3]; 3,000 nM, normalized to Emax of capsaicin, n = 10): 100.0 ± 1.8 % | % Activation, EC80 agonist control of the TRPV1 antagonist assay ([3]; Capsaicin EC80, 100 nM, normalization control): 100%

Further lines, results first:

increase of hTRPM8 activity relative to Compound 1 ([1]; icilin Ca2+ assay): 30 fold | IC50 [1, 4]: 468 ± 1 nM
SMILES: CC1CCC(C(C)C)C(NC(=O)c2ccc(-c3ccccc3)cc2)C1 (mixture of isomers) [Compound 2, N-(2-isopropyl-5-methylcyclohexyl)-[1,1′-biphenyl]-4-carboxamide]

IC50 [1, 4]: 21000 ± 1000 nM
SMILES: O=C(NC1CCCC2CCCCC21)c1ccc(-c2ccccc2)cc1 (mixture of isomers) [Compound 8, N-(decahydronaphthalen-1-yl)-[1,1′-biphenyl]-4-carboxamide]

IC50 [1]: 7100 ± 900 nM
SMILES: O=C(NC1CC2CCC1C2)c1ccc(-c2ccccc2)cc1 (single isomer, unassigned) [Compound 4, N-(bicyclo[2.2.1]heptan-2-yl)-[1,1′-biphenyl]-4-carboxamide]

inhibition at 0.003 µM [3, 7]: 1.6 ± 4.2% | inhibition at 0.01 µM [3, 7]: 0.1 ± 1.3% | inhibition at 0.03 µM [3, 7]: 1.1 ± 1.7% | inhibition at 0.1 µM [3, 7]: 7.1 ± 2.2% | inhibition at 0.3 µM [3, 7]: 23.4 ± 2.5% | inhibition at 1 µM [3, 7]: 94.2 ± 1.1% | inhibition at 3 µM [3, 7]: 100.6 ± 0.3% | inhibition at 10 µM [3, 7]: 101.2 ± 0.5% | IC50 ([3]; capsaicin 100 nM, read-out: IC50, blockade of capsaicin-activated hTRPV1 responses): 451 ± 48 nM
SMILES: Oc1cc2c(cc1O)CN(C(=S)NCCc1ccc(Cl)cc1)CCC2 [Capsazepine, reference compound]
